Results on 1 compound are retold here after patent US10376486B2, “Compositions and methods for reactivating latent viral infections” (priority 2014, dated 2019).

One data set concerns latent HIV in U1 cells. The experiment in a line: HIV transcription in U1 cells (RT-qPCR). The format is cell-based. As to conditions: 6 nM PEP005, 2 μM JQ1, 24 h. Here is the method: FIG. 2: PEP005 synergizes with other latency reversing agents in reactivating latent HIV. (A) J-Lat A1 cells were treated with 5 ng/ml PMA, 6 nM PEP005, 500 nM SAHA, 2 μM JQ1, 2 μM GSK343, or 10 μM Prostratin alone or in combination with 6 nM PEP005 for 24 hours and the percentage of GFP expressing cells was determined using flow cytometry. **, p<0.01; *, p<0.05 compared with control treatment; **, p<0.01; *, p<0.05 compared with PEP005 treatment alone. (B) The U1 cells were treated with 5 ng/ml PMA, 6 nM PEP005, 500 nM SAHA, 2 μM JQ1, or 2 μM GSK343, alone or in combination with 6 nM PEP005 for 24 hours and the HIV transcription was evaluated using RT-qPCR. […] Statistical significance was determined using a one tailed ratio t-test comparing predicted and observed drug combination effects. *p<0.05; **p<0.01.
J-Lat A1 cells (harboring a single copy of latent HIV LTR and one copy of green fluorescent protein gene under the HIV LTR control) or U1 cells (harboring two latent HIV genomes with defective Tat gene) were cultured in RPMI1640 medium with 10% fetal bovine serum (FBS) and 1% Pen/strep in a 37° C. incubator containing 5% CO2 [24,31]. […] HIV reactivation was quantified by GFP expression using flow cytometry and the data were analyzed using FlowJo Software for J-Lat A1 cells, or by quantitative RT-PCR (RT-qPCR) for J-Lat A1 and U1 cells. […]
(In general: Real-time PCR tracks product formation cycle by cycle.)

The subject of data set [1] is PKCδ/θ-IκBα/ε-NF-κB signaling. The data set can be described thus: Western blot of PKC isoforms, IκB isoforms and NF-κB/p65. The format is cell-based. To be noted: J-Lat A1 cells. Here is the method: Western blot analysis was performed to detect the expression of PKC isoforms, IκB isoforms, as well as expression of NF-κB/p65.
Whole cell protein extracts were prepared with RIPA buffer containing proteinase inhibitors and phosphatase inhibitors (Sigma). Expression of the isoforms of PKC protein or NF-κB/p65 was evaluated using the PKC Isoform Sampler Antibody Kit (Cell Signaling, 9960S) or anti-NF-κB/p65 (Abcam). The level of phosphorylation of PKC was determined using anti-Phospho-Ser664-PKCδ, anti-Phospho-Ser643/676 PKCδ or anti-Phospho-T538-PKCθ (Millipore), and the level of phosphorylation of IκB was determined using p-IκBα(Ser32), p-IκBβ (Thr19/Ser23) or p-IκBε(Ser18/22) antibodies (Millipore).

For another data set, the system named is primary CD4+ T cells. The experiment in a line: Pro-inflammatory cytokine expression in primary CD4+ T cells (RT-qPCR). The format is cell-based, human. To be noted: CD4+ T cells of healthy HIV-negative donors, 6 or 12 nM PEP005, 24 or 72 hours. As for the experimental part:
CD4+ T cells were isolated from healthy donors and treated with 6 or 12 nM of PEP005 for 24 or 72 hours, and the relative expression of TNF-α (A), IFN-γ (B), IL-2 (C), and IL-6 (D) was quantified using RT-qPCR and normalized to GAPDH internal control.

With `C/C=C(/C)C(=O)O[C@H]1C(C)=C[C@]23C(=O)[C@@H](C=C(CO)[C@@H](O)[C@]12O)[C@H]1[C@@H](C[C@H]3C)C1(C)C` [PEP005, (1aR,2S,5R,5aS,6S,8aS,9R,10aR)-5,5a-Dihydroxy-4-(hydroxymethyl)-1,1,7,9-tetramethyl-11-oxo-1a,2,5,5a,6,9,10,10a-octahydro-1H-2,8a-methanocyclopenta[a]cyclpropa[e][10]annulen-6-yl (2Z)-2-methylbut-2-enoate], the “increase in latent HIV reactivation / HIV transcription compared to controls” value in the data set on latent HIV in U1 cells was “about 25 fold”. Further, in data set [1] (12 nM PEP005), the “expression of NF-κB/p65” value is “did not change”; the “phosphorylation of IκB isoforms” value was “induced phosphorylation of IκBα and IκBε, but not of IκBβ”. Moreover, the “expression of PKC proteins” value in data set [1] (12 nM PEP005, 1 hr) is recorded as “modest up-regulation of PKCδ”. The “phosphorylation of Ser643/Ser676 in PKCδ/θ” value in data set [1] (12 nM PEP005, as early as 30 minutes post treatment) is listed as “greater than a two-fold increase”. For the same compound, the “expression of TNF-α, IFN-γ, IL-2, and IL-6” value in the data set on primary CD4+ T cells is “no significant increase”. The “expression of TNF-α” value in the data set on primary CD4+ T cells (not statistically significant) is reported as “tendency towards an up-regulation”.
